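Interpolation was linear, between the two tested concentrations surrounding the appropriate level; five concentrations were tested over 48 hours in 96-well plates. GI50 marks 50% less growth. The concentration for full growth arrest is given as TGI.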
Assays:
Assay in all cases: NCI-60 cell line screen, 48 h
PC-3 prostate = tested on: PC-3 prostate
SK-MEL-28 melanoma = tested on: SK-MEL-28 melanoma
MCF7 breast = tested on: MCF7 breast
HOP-62 NSCLC = tested on: HOP-62 NSCLC
U251 CNS = tested on: U251 CNS
SK-MEL-5 melanoma = tested on: SK-MEL-5 melanoma
HCC-2998 colon = tested on: HCC-2998 colon
HT29 colon = tested on: HT29 colon
T-47D breast = tested on: T-47D breast
MOLT-4 leukemia = tested on: MOLT-4 leukemia

Row | Compound | TGI (PC-3 prostate) [µM] | TGI (SK-MEL-28 melanoma) [µM] | TGI (MCF7 breast) [µM] | TGI (HOP-62 NSCLC) [µM] | TGI (U251 CNS) [µM] | TGI (SK-MEL-5 melanoma) [µM] | TGI (HCC-2998 colon) [µM] | TGI (HT29 colon) [µM] | TGI (T-47D breast) [µM] | GI50 (PC-3 prostate) [µM] | GI50 (SK-MEL-28 melanoma) [µM] | GI50 (MCF7 breast) [µM] | GI50 (HOP-62 NSCLC) [µM] | GI50 (U251 CNS) [µM] | GI50 (SK-MEL-5 melanoma) [µM] | GI50 (HCC-2998 colon) [µM] | GI50 (MOLT-4 leukemia) [µM] | TGI (MOLT-4 leukemia) [µM] | GI50 (T-47D breast) [µM] | GI50 (HT29 colon) [µM]
1 | BrC(Br)=C1C(=C(Br)Br)C(Br)C1Br (stereo unspecified) | 5.42 | 3.06 | 1.31 | 2.88 | 2.69 | 2.04 | 0.777 | 1.49 | > 100 | – | – | – | – | – | – | – | – | – | – | –
2 | CCN1CCC(Nc2ccnc3cc(Cl)ccc23)CC1 | > 100 | 33.5 | > 100 | > 100 | > 100 | 30.2 | > 100 | – | > 100 | 24.9 | 18.1 | 28.2 | 21.9 | 30.5 | 16 | 33.3 | 18.5 | > 100 | 31.3 | –
3 | O=C1/C=C/[C@@H](O)[C@@H]2C[C@@H](O)C[C@H]2/C=C/CCC[C@H](CCc2cccc3ccccc23)O1 | 12 | 0.163 | 0.377 | 11.8 | 12.1 | 0.0326 | 0.33 | 0.373 | – | 0.065 | 0.0313 | 0.0753 | 0.0713 | 0.0475 | 0.0171 | 0.0444 | 0.105 | 2.61 | – | 0.0347
4 | N.N.N.N.N.NC(=O)[O-].[Co+3].[I-] | – | > 100 | – | > 100 | > 100 | > 100 | > 100 | > 100 | – | – | > 100 | – | > 100 | > 100 | > 100 | > 100 | > 100 | > 100 | – | > 100
5 | COc1cc(C2CC(c3cccc(Nc4ccnc5cc(Cl)ccc45)c3)=NN2c2ccc(Cl)cc2)cc(OC)c1OC (stereo unspecified) | > 100 | > 100 | > 100 | 22.7 | – | 4.05 | 22.1 | – | > 100 | 0.819 | 4.54 | 2.31 | 1.39 | – | 1.37 | 3.14 | 3.68 | > 100 | 0.687 | –
6 | CO[C@@H]1C=C[C@@]23c4cc5c(cc4CN(C[C@@H]2O)[C@H]3C1)OCO5 | – | > 100 | – | – | 73.1 | – | 56.6 | > 100 | – | – | – | – | – | – | – | – | – | 69.5 | – | –
7 | CN1CN(C2OC(CO)C(O)C2O)c2nc(N)[nH]c(=O)c21 (stereo unspecified) | – | – | – | > 100 | > 100 | > 100 | > 100 | > 100 | – | – | – | – | – | – | – | – | – | > 100 | – | –
8 | N#CC(C(=O)C(=O)Nc1ccccc1)c1ccccc1 (stereo unspecified) | – | > 100 | – | – | > 100 | – | – | > 100 | – | – | – | – | – | – | – | – | – | > 100 | – | –
9 | COC(OC)c1cc2c(cc1C=O)OCO2 | – | > 100 | – | > 100 | > 100 | > 100 | > 100 | > 100 | – | – | – | – | – | – | – | – | – | > 100 | – | –
10 | O=c1c2ccc(S(=O)(=O)c3ccc4c(=O)n5c6ccccc6nc5c5cccc3c45)c3cccc(c32)c2nc3ccccc3n12 | > 100 | > 100 | > 100 | > 100 | 35.5 | > 100 | > 100 | > 100 | 99.3 | – | – | – | – | – | – | – | – | – | – | –

From PubChem BioAssay (NCI)
